Data set [1] is described as follows: MT4 CC50 cytotoxicity (CC50-MT4-384). The data set is classed as cell-based. To be noted: human; uninfected MT-4 cells, 4-5 days, Cell-Titer Glo; Example G. The protocol:
Example G. HEp-2 and MT4 CC50
Cytotoxicity of the compounds was determined in uninfected cells using the cell viability reagent in a similar fashion as described before for other cell types (Cihlar et al., ANTIMICROB AGENTS CHEMOTHER. 2008, 52(2):655-65). HEp-2 (1.5×10^3 cells/well) and MT-4 (2×10^3 cells/well) cells were plated in 384-well plates and incubated with the appropriate medium containing 3-fold serially diluted compound ranging from 15 nM to 100,000 nM. Cells were cultured for 4-5 days at 37° C. Following the incubation, the cells were allowed to equilibrate to 25° C., and cell viability was determined by adding Cell-Titer Glo viability reagent. The mixture was incubated for 10 min, and the luminescence signal was quantified using an Envision plate reader. Untreated cell and cells treated at 2 μM puromycin (Sigma, St. Louis, MO) serve as 100% and 0% cell viability control, respectively. The percent of cell viability was calculated for each tested compound concentration relative to the 0% and 100% controls and the CC50 value was determined by non-linear regression as a compound concentration reducing the cell viability by 50%.

A further data set has as its system RSV strain A2. Description: RSV Cellomics assay for RSV A2 antiviral activity (EC50-RSV-Hep2-96-Cellomics). Type of data set: cell-based. The note with it: human respiratory syncytial virus, HEp-2, 72 h; Hep2 cells infected with RSV strain A2, MOI=0.05, 3 days; Example B1. The protocol:
Example B1: RSV Cellomics Assay for RSV A2 Antiviral Activity (EC50-RSV-Hep2-96-Cellomics) 8×10^3 Hep2 cells are seeded into 96 well plates in 100 μL of media (DMEM supplemented with GlutaMAX, 10% FBS and Pen/Strep) and briefly spun at 50×g for 1 minute to attach cells. Cells were further allowed to attach with overnight incubation at 37° C.+5% CO2. The following day, the media was aspirated and 100 μL of fresh DMEM media containing 2% FBS was added. A three-fold dilution series of compounds of interest are then added to the plate using the Tecan D300e dispenser and the plate is normalized to the well with the highest volume of DMSO. The cells are next infected by adding 100 μL of media containing RSV strain A2 at an MOI=0.05 and the plates incubated for 3 days at 37° C.+5% CO2. Following the incubation, the media is removed, and the cells are washed once with 250 μL PBS and fixed with 250 μL ice-cold 100% methanol for 10 minutes at 4° C. The methanol is then removed and the plates air dried for 5 minutes and then washed once with 250 μL PBS to remove any residual methanol. The wells are then blocked 60 µL/well of BlockAid (B10710, Thermo-Fisher) for 1 hour at RT on rocker at which point the blocking buffer is carefully aspirated. Primary antibody against the RSV F protein (MAB 858-1) is then diluted 1:2000 in SuperBlock (37515, Thermo Fisher) and 50 μL of the primary antibody solution is added to each well. The plates are incubated at room temperature for 1 hour with gentle agitation and then washed with 250 μL of PBS-Tween 3 times. A goat anti-mouse AlexaFluor 647 conjugated secondary antibody (Sigma, A21235) is then diluted 1:2000 and Hoescht 33342 (H3570) at 1:1000 in SuperBlock and 50 μL added to the wells for 1 hour at 37° C. After incubation the antibody solution is aspirated, and the wells are then washed with 250 μL of PBS-Tween 3 times. To keep cells from drying out, 100 μL of PBS is added to each well and the plates are sealed with black plate seal. Fluorescence at the 647 nm wavelength is measured using a Cellomics CellInsight CX7 machine. Compound activity is determined as a percentage of the % positive cells (or average intensity) compared to DMSO treated RSV infected well controls following subtraction of uninfected controls. The EC50 values are then calculated using nonlinear regression analysis in GraphPad Prism.

pEC50: −log10 of the molar value.

This is an account of results in patent publication US20250090537A1, “ANTIVIRAL COMPOUNDS AND METHODS OF MAKING AND USING THE SAME” (Gilead Sciences, Inc., priority 2023, published 2025).

Regarding `CCOC(=O)O[C@H]1[C@H](c2ccc3c(N)ncnn23)O[C@](C#N)(COC(=O)C(C)C)[C@H]1OC(=O)OCC` [Compound 3, ((2R,3S,4S,5S)-5-(4-aminopyrrolo[2,1-f][1,2,4]triazin-7-yl)-2-cyano-3,4-bis((ethoxycarbonyl)oxy)tetrahydrofuran-2-yl)methyl isobutyrate], the CC50 in data set [1] is above 50 µM. The molecule also showed a pEC50 in the data set on RSV strain A2 of 4.44. Turning to `CCOC(=O)O[C@H]1[C@H](c2ccc3c(N)ncnn23)O[C@](C#N)(COC(C)=O)[C@H]1OC(=O)OCC` [Compound 1, ((2R,3S,4S,5S)-5-(4-aminopyrrolo[2,1-f][1,2,4]triazin-7-yl)-2-cyano-3,4-bis((ethoxycarbonyl)oxy)tetrahydrofuran-2-yl)methyl acetate], in data set [1], the CC50 is above 50 µM. In the data set on RSV strain A2, the negative-log EC50 (pEC50) was 4.72. With `N#C[C@]1(CO)O[C@@H](c2ccc3c(N)ncnn23)[C@H](O)[C@@H]1O` [Compound 0, (2R,3S,4R,5S)-5-(4-aminopyrrolo[1,2-f][1,2,4]triazin-7-yl)-3,4-dihydroxy-2-(hydroxymethyl)tetrahydrofuran-2-carbonitrile, reference compound], in the data set on RSV strain A2, the pEC50 was 5.01.

Molecule `CCOC(=O)O[C@H]1[C@H](c2ccc3c(N)ncnn23)O[C@](C#N)(COC(=O)CC(C)(C)C)[C@H]1OC(=O)OCC` [Compound 4, ((2R,3S,4S,5S)-5-(4-aminopyrrolo[2,1-f][1,2,4]triazin-7-yl)-2-cyano-3,4-bis((ethoxycarbonyl)oxy)tetrahydrofuran-2-yl)methyl 3,3-dimethylbutanoate] yielded a 50% cytotoxic concentration (CC50) in data set [1] above 50 µM. The molecule further gave a pEC50 with RSV strain A2 of 4.43.

In general, CC50 refers to the concentration at which the toxic effect on the cells reaches its halfway point. A lower CC50 goes with harm at low concentration. Usually pEC50 stands for the negative decadic logarithm of the EC50, by convention in mol/L.
